The IC50 is the concentration at which inhibition is half-maximal.

The subject of this assay is Hedgehog pathway activation (GLi-luciferase reporter) in Shh Light II reporter cells. Briefly: Hedgehog pathway activation on Shh Light II reporter cells measured by luciferase activity. The assay is classed as cell-based. As to conditions: Mus musculus, Shh Light II, hShh activation, read-out: Shh (IC50, inhibition of Hedgehog pathway activation). An outline of the steps:
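Shh Light II reporter cells carrying a hedgehog-responsive GLi-luciferase reporter were stimulated either with 500 nM SAG, a direct Smoothened agonist, or with conditioned media containing human Sonic Hedgehog (hShh). Test compounds were evaluated for blocking this pathway activation, quantified by luciferase activity. Cell viability was monitored in parallel with the Celltiter-Blue® assay.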
With `COC(=O)c1cccc(-c2ccc3nc(-c4ccc(C)c(NC(=O)C(C)(C)C)c4)cn3n2)c1` [compound 583], the IC50 is 742 nM.

`Cc1ccc(-c2cn3nc(-c4ccc(C(=O)NOC5CCCCO5)cc4)ccc3n2)cc1NC(=O)C(C)(C)C` (centres unmarked) [compound 584]: the 50% inhibitory concentration (IC50) came to 1900 nM.

Consider `Cc1ccc(-c2cn3nc(-c4cccc(C(=O)NOC5CCCCO5)c4)ccc3n2)cc1NC(=O)C(C)(C)C` (centres unmarked) [compound 585], for which the concentration for half-maximal inhibition (IC50) worked out at 925 nM.

For the compound `Cc1ccc(-c2cn3nc(-c4ccc(C(=N)NN)cc4C(F)(F)F)ccc3n2)cc1NC(=O)C(C)(C)C` [compound 586], the IC50 was found to be 87 nM.

As for `COc1cc(CNc2ccc3nc(-c4ccc(C)c(NC(=O)C(C)(C)C)c4)cn3n2)cc(OC)c1OC` [compound 587], the IC50 was 632 nM.

Turning to `Cc1ccc(-c2cn3nc(-c4ccc(C(=O)NO)cc4)ccc3n2)cc1NC(=O)C(C)(C)C` [compound 588], the IC50 was 1050 nM.

For `Cc1ccc(-c2cn3nc(-c4cccc(C(=O)NO)c4)ccc3n2)cc1NC(=O)C(C)(C)C` [compound 589], the IC50 turned out to be 498 nM.

As to `Cc1ccc(-c2cn3nc(-c4ccc(-c5nc(=O)[nH][nH]5)cc4C(F)(F)F)ccc3n2)cc1NC(=O)C(C)(C)C` [compound 590], the IC50 came out at 456 nM.

Turning to `Cc1ccc(-c2cn3nc(N)ccc3n2)cc1NC(=O)C(C)(C)C` [compound 591, N-(5-(6-aminoimidazo[1,2-b]pyridazin-2-yl)-2-methylphenyl)pivalamide], the IC50 came out at 578 nM.

`COC(=O)c1ccc(CNc2ccc3nc(-c4ccc(C)c(NC(=O)C(C)(C)C)c4)cn3n2)cc1` [compound 592]: the IC50 turned out to be 443 nM.

Turning to `Cc1ccc(-c2cn3nc(NCc4ccc(CO)cc4)ccc3n2)cc1NC(=O)C(C)(C)C` [compound 593], the IC50 turned out to be 2040 nM.

Take `Cc1ccc(-c2cn3nc(NS(=O)(=O)c4cccc(Br)c4)ccc3n2)cc1NC(=O)C(C)(C)C` [compound 595]: the IC50 was determined as 348 nM.

Turning to `CCOC(=O)C=Cc1cccc(S(=O)(=O)Nc2ccc3nc(-c4ccc(C)c(NC(=O)C(C)(C)C)c4)cn3n2)c1` [compound 603], the half-maximal inhibitory concentration (IC50) turned out to be 8180 nM.

For the compound `Cc1ccc(-c2cn3nc(NCc4ccc(C(=O)NO)cc4)ccc3n2)cc1NC(=O)C(C)(C)C` [compound 604], the IC50 was 157 nM.

With `CCOC(=O)C=Cc1cccc(S(=O)(=O)Nc2cc(-c3cn4nc(Cl)ccc4n3)ccc2C)c1` [compound 607], the IC50 was 2100 nM.

Consider `CCOC(=O)C=Cc1cccc(S(=O)(=O)Nc2cc(-c3cn4nc(C=CC(=O)OCC)ccc4n3)ccc2C)c1` [compound 608], for which the IC50 came to 2040 nM.

Consider `CCOC(=O)C=Cc1cccc(C(=O)Nc2cc(-c3cn4nc(Cl)ccc4n3)ccc2C)c1` [compound 609], for which the IC50 is over 10000 nM.

Take `CCOC(=O)C=Cc1cccc(C(=O)Nc2cc(-c3cn4nc(C=CC(=O)OCC)ccc4n3)ccc2C)c1` [compound 610]: the IC50 was found to be 465 nM.

Regarding `Cc1ccc(-c2cn3nc(NC(=O)c4ccccn4)ccc3n2)cc1NC(=O)C(C)(C)C` [compound 611], the IC50 turned out to be 49 nM.

With `Cc1ccc(-c2cn3nc(NC(=O)c4ncccc4Cl)ccc3n2)cc1NC(=O)C(C)(C)C` [compound 612], the IC50 is 78 nM.

For `Cc1ccc(-c2cn3nc(NC(=O)c4cc(Cl)ccn4)ccc3n2)cc1NC(=O)C(C)(C)C` [compound 613], the IC50 is 283 nM.

For the compound `Cc1ccc(-c2cn3nc(NCc4cccc(C=CC(=O)NO)c4)ccc3n2)cc1NC(=O)C(C)(C)C` [compound 614], the IC50 came out at 4370 nM.

With `Cc1ccc(-c2cn3nc(Cl)ccc3n2)cc1NC(=O)c1cccc(C=CC(=O)NO)c1` [compound 615], the IC50 was found to be 2240 nM.

Take `COc1ccc2nc(-c3ccc(C)c(NC(=O)c4cccc(C=CC(=O)NO)c4)c3)cn2n1` [compound 616]: the 50% inhibitory concentration (IC50) was over 10000 nM.

As to `Cc1ccc(-c2cn3nc(Cl)ccc3n2)cc1NS(=O)(=O)c1cccc(C=CC(=O)NO)c1` [compound 617], the IC50 was found to be 8600 nM.

As for `COc1ccc2nc(-c3ccc(C)c(NS(=O)(=O)c4cccc(C=CC(=O)NO)c4)c3)cn2n1` [compound 618], the IC50 was found to be 9080 nM.

Source of the values: patent US8871767B2, “2-arylimidazo[1,2-B]pyridazine, 2-phenylimidazo[1,2-A]pyridine, and 2-phenylimidazo[1,2-A]pyrazine derivatives” (Hengrui (USA) Ltd., priority 2010, dated 2014).
